Here are results for 28 compounds from patent publication US8278306B2 (Vertex Pharmaceuticals Incorporated, priority 2006, dated 2012).

For one assay, the target named is T1, CYP1A2 (Homo sapiens, UniProt P05177).
T1 sequence (P05177 1-516): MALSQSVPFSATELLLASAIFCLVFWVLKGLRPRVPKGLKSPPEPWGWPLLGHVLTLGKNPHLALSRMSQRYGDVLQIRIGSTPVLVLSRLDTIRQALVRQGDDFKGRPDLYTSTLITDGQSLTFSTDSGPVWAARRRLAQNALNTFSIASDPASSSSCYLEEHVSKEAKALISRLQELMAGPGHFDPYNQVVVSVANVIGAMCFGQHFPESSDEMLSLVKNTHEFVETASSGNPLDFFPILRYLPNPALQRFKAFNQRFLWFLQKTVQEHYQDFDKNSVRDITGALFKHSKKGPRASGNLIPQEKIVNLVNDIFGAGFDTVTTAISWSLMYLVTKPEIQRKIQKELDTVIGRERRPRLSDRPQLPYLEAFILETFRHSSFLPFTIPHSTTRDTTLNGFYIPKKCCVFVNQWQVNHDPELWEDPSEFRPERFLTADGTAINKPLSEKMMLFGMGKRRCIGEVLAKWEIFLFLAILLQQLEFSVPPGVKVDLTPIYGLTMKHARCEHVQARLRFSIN
Description: Cytochrome P450 isozyme inhibition, fluorescent Vivid substrate. The note with it: 5 nM CYP1A2, 2 μM Vivid 1A2 Blue, 60 minutes. In kind it is in vitro ADME. Here is the method:
(§1) Selected compounds of the invention were assayed for their ability to inhibit various cytochrome P450 isozymes, such as, for example CYP2D6, CYP2C9, CYP1A2, CYP2C19, CYP3A4, CYP2C9, and CYP3A4 (human liver microsome). Such assays are described by Crespi et al., Anal. Biochem. 248:188-90, 1997; Ekins et al., J. Pharmacol. Exp. Ther. 290, 429-38, 1999; and Ekins et al., J. Pharmacol. Exp. Ther. 291, 424-33, 1999. In a typical isozyme inhibition experiment, test compounds are placed into a microwell on a microtiter plate as an 8 nL solution (2 mM in 75% DMSO/water). The plate is centrifuged for 2 minutes at approximately 1000 rpm to shift the compound to the bottom of the well. Polyvinylpyrrolidone (PVP/10K, 100 nL, 0.2% in 75% DMSO/water) is added to the well and this excipient also centrifuged for 2 minutes at approximately 1000 rpm to ensure mixing with the compound. The plates containing the wells are dried in vacuo. Distilled water (800 nL) is added to the wells containing compound, the background control wells, and the positive control wells, followed by the addition of 200 nL of phosphate buffer (500 mM potassium phosphate butter at pH=8.4). The positive control cells contain a drug such as, for example, miconazole. Insect baculosomes (PanVera P2315) in […] phosphate buffer was added to the background control wells and the plate was scanned for compound fluorescence. […] Therefore, CYP450 isozyme (400 nL) and recycling buffer (3.3 mM glucose-6-phosphate, 0.4 units/mL glucose-6-phosphate dehydrogenase, 100 mM MgCl2, and 0.00025% Antifoam 289) in 100 mM phosphate buffer was added to each well containing compound and background control to obtain the following concentrations: 5 nM CYP3A4, 10 nM CYP2C9, 5 nM CYP1A2, 5 nM CYP2C19, and 20 nM CYP2D6. After incubation for 60 minutes, the wells were read with a fluorescent plate reader.

A further assay has as its target CYP2C19 (Homo sapiens, UniProt P33261). The assay is described as above. Particulars: 5 nM CYP2C19, 10 μM Vivid 2C19 Blue, 60 minutes. In kind it is in vitro ADME. Here is the method:
as §1

For the next assay, the target named is CYP2C9 (Homo sapiens, UniProt P11712). The assay is described as above. In kind it is in vitro ADME. The note with it: 10 nM CYP2C9, 1 μM Vivid 2C9 Green, 60 minutes. Here is the method: as §1
Chain of CYP2C9 (P11712 whole entry): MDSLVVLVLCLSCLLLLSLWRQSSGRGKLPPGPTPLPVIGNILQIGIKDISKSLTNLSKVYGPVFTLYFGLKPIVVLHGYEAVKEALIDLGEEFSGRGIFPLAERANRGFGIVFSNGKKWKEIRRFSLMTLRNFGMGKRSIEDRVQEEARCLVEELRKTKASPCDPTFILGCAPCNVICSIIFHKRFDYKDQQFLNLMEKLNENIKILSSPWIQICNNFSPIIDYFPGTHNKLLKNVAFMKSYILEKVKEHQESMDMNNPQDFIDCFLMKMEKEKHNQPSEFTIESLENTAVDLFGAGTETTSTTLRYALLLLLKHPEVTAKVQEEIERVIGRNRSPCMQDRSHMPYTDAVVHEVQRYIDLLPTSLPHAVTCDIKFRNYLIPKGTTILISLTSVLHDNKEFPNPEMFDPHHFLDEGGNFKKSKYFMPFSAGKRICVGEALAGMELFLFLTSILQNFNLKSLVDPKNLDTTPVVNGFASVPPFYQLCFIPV
Another assay has as its target CYP2D6 (Homo sapiens, UniProt P10635). The description is as above. In kind it is in vitro ADME. The note with it: 20 nM CYP2D6, 10 μM Vivid 2D6 Blue, 60 minutes. Here is the method: as §1
The target in the next assay is T2, ROCK I (AA 6-553) (Homo sapiens, UniProt Q13464).
T2 construct: ROCK I (AA 6-553)
T2 sequence (Q13464 6-553, species assumed): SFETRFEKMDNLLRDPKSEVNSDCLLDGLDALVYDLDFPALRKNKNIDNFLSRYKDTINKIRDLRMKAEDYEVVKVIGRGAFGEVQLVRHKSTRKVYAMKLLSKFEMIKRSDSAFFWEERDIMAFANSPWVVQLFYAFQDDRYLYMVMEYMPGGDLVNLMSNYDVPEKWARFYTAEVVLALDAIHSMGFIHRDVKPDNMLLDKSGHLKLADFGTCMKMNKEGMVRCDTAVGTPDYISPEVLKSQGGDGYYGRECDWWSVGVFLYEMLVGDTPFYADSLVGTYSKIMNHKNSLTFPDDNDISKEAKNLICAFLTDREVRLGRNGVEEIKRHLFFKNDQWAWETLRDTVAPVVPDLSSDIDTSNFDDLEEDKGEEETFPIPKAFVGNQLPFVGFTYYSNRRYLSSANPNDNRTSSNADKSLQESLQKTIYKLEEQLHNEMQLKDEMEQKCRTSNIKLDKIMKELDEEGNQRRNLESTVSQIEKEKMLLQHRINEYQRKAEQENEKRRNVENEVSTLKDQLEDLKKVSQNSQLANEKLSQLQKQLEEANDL
Put plainly: ROCK inhibition assay, standard coupled enzyme system. Particulars: 45 nM ROCK I, 45 μM ATP, 200 μM peptide, 30° C. In kind it is biochemical. Here is the method: Reactions were carried out in a solution containing 100 mM HEPES (pH 7.5), 10 mM MgCl2, 25 mM NaCl, 2 mM DTT and 1.5% DMSO.

For the next assay, the target named is CYP3A4 (Homo sapiens, UniProt P08684). Description: Cytochrome P450 isozyme inhibition, fluorescent Vivid substrate. In kind it is in vitro ADME. Particulars: 5 nM CYP3A4, 5 μM Vivid 3A4 Red, 60 minutes. As to the method:
Selected compounds of the invention were assayed for their ability to inhibit various cytochrome P450 isozymes, such as, for example CYP2D6, CYP2C9, CYP1A2, CYP2C19, CYP3A4, CYP2C9, and CYP3A4 (human liver microsome). Such assays are described by Crespi et al., Anal. Biochem. 248:188-90, 1997; Ekins et al., J. Pharmacol. Exp. Ther. 290, 429-38, 1999; and Ekins et al., J. Pharmacol. Exp. Ther. 291, 424-33, 1999. […] The plate is centrifuged for 2 minutes at approximately 1000 rpm to shift the compound to the bottom of the well. […] Distilled water (800 nL) is added to the wells containing compound, the background control wells, and the positive control wells, followed by the addition of 200 nL of phosphate buffer (500 mM potassium phosphate butter at pH=8.4). The positive control cells contain a drug such as, for example, miconazole. Insect baculosomes (PanVera […]) in […] phosphate buffer was added to the background control wells and the plate was scanned for compound fluorescence. […] After incubation for 60 minutes, the wells were read with a fluorescent plate reader.

Assay [1] has as its target T3, CYP3A4 (human liver microsome) (Homo sapiens, UniProt P08684).
T3 construct: CYP3A4 (human liver microsome); from tissue; host or cells: human liver microsomes
Description: Cytochrome P450 inhibition, human liver microsome. The note with it: read-out: CYP3A4 (HLM) Ki. In kind it is in vitro ADME. As to the method:
Selected compounds of the invention were assayed for their ability to inhibit various cytochrome P450 isozymes, such as, for example CYP2D6, CYP2C9, CYP1A2, CYP2C19, CYP3A4, CYP2C9, and CYP3A4 (human liver microsome). Such assays are described by Crespi et al., Anal. Biochem. 248:188-90, 1997; Ekins et al., J. Pharmacol. Exp. Ther. 290, 429-38, 1999; and Ekins et al., J. Pharmacol. Exp. Ther. 291, 424-33, 1999. […] The plate is centrifuged for 2 minutes at approximately 1000 rpm to shift the compound to the bottom of the well. […] Distilled water (800 nL) is added to the wells containing compound, the background control wells, and the positive control wells, followed by the addition of 200 nL of phosphate buffer (500 mM potassium phosphate butter at pH=8.4). The positive control cells contain a drug such as, for example, miconazole. […] After incubation for 60 minutes, the wells were read with a fluorescent plate reader.
Background: Liver microsomes are a subcellular fraction often used to study metabolism.

Molecules are shown by their SMILES.

Chain of CYP3A4 (P08684 whole entry): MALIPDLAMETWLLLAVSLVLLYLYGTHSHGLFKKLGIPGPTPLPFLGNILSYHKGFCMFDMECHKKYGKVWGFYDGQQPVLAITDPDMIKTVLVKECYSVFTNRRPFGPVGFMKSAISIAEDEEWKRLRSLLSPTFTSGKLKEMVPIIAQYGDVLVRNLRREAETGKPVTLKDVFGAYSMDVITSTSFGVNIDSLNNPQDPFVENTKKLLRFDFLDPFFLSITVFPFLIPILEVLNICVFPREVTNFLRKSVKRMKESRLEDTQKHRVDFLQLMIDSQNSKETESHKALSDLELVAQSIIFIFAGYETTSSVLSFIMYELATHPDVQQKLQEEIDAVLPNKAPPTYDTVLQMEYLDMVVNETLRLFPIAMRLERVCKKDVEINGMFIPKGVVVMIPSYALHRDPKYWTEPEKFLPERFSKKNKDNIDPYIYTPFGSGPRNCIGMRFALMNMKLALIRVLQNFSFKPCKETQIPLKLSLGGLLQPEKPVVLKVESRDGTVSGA
T3 sequence (P08684 whole entry): as above
Chain of CYP2D6 (P10635 whole entry, the tested form may be a part): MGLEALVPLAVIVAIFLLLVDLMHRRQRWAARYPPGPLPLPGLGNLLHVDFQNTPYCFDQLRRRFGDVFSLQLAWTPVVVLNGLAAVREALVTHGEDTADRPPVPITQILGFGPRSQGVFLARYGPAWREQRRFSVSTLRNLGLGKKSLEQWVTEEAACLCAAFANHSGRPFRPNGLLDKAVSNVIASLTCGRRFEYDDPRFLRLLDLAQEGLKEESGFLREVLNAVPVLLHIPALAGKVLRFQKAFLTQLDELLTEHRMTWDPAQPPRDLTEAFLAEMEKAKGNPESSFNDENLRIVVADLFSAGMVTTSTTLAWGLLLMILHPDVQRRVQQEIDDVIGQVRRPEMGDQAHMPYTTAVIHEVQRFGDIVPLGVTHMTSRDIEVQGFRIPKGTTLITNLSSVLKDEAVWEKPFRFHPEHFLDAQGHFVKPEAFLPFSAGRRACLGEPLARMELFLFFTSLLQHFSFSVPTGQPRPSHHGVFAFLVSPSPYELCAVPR
Chain of CYP2C19 (P33261 whole entry): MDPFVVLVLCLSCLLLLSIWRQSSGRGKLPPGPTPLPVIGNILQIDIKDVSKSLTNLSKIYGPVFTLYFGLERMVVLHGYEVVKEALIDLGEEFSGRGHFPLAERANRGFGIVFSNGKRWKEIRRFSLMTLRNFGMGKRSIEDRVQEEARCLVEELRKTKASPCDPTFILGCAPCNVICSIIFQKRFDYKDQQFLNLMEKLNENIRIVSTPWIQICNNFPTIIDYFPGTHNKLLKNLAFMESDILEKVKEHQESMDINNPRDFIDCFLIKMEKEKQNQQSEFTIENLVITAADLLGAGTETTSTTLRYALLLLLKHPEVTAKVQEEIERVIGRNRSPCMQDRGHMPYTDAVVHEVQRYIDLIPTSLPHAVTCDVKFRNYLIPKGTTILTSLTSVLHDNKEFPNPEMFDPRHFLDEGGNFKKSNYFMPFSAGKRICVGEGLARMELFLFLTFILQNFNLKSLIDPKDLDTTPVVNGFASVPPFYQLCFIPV

Turning to `COc1cccc(CC(=O)Nc2cc(-c3ccnc(N)c3)cs2)c1` [Compound 64, N-(4-(2-aminopyridin-4-yl)thiophen-2-yl)-2-(3-methoxyphenyl)acetamide], the Ki – broadly, a measure of affinity in units of concentration, obtained from inhibition or displacement – on CYP1A2 was 1 to 10 µM; at CYP2C19 it was more than 10 µM; at CYP2C9 it was 1 to 10 µM; on CYP2D6, 1 to 10 µM.
As for `CN1CCN(CCOc2cccc(CC(=O)Nc3cc(-c4ccnc(F)c4)cs3)c2)CC1` [Compound 73], the Ki on ROCK I (AA 6-553) was less than 0.1 µM; on CYP1A2 it was more than 10 µM; on CYP2C9, more than 10 µM; on CYP2D6 it was more than 10 µM; on CYP3A4 it was more than 10 µM; in assay [1], more than 10 µM.
Turning to `O=C(Cc1cccc(OCCCC2CCNCC2)c1)Nc1cc(-c2ccnc(F)c2)cs1` [Compound 72], the Ki on ROCK I (AA 6-553) is less than 0.1 µM; at CYP1A2 it was more than 10 µM; at CYP2C19, 1 to 10 µM; at CYP2D6, 1 to 10 µM; on CYP3A4, 1 to 10 µM; in assay [1] it was more than 10 µM.
Take `COc1cccc(CC(=O)Nc2cc(-c3ccnc(F)c3)cs2)c1` [Compound 61]: the Ki on CYP1A2 was more than 10 µM; on CYP2C19, 1 to 10 µM; on CYP2C9, 1 to 10 µM; at CYP2D6, more than 10 µM.
Take `Cc1cc(-c2csc(NC(=O)Cc3cccc(OCCN4CCCCC4)c3)c2)ccn1` [Compound 94]: the inhibitory constant (Ki) on ROCK I (AA 6-553) was more than 1 µM; on CYP1A2, more than 10 µM; at CYP2C19, more than 10 µM; at CYP2C9 it was more than 10 µM; on CYP3A4, more than 10 µM; in assay [1], more than 10 µM.
`Cc1cc(-c2csc(NC(=O)Cc3cccc(OCCN4CCNCC4)c3)c2)ccn1` [Compound 92]: the Ki at ROCK I (AA 6-553) was 0.1 to 1 µM; on CYP1A2, more than 10 µM; at CYP2C19 it was more than 10 µM; on CYP2C9, more than 10 µM; on CYP3A4, more than 10 µM; in assay [1], more than 10 µM.
Regarding `Cc1cc(-c2csc(NC(=O)Cc3cccc(OCCN4CCN(C)CC4)c3)c2)ccn1` [Compound 93], the Ki was 0.1 to 1 µM at ROCK I (AA 6-553); more than 10 µM at CYP1A2; more than 10 µM at CYP2C19; more than 10 µM at CYP2C9; more than 10 µM at CYP3A4; more than 10 µM in assay [1].
Regarding `Cc1cc(-c2csc(NC(=O)Cc3cccc(OCCCN4CCNCC4)c3)c2)ccn1` [Compound 89], the Ki at ROCK I (AA 6-553) was less than 0.1 µM; on CYP1A2 it was more than 10 µM; at CYP2C19, 1 to 10 µM; on CYP2C9, more than 10 µM; at CYP3A4, more than 10 µM; in assay [1] it was more than 10 µM.
The compound `CCN(CC)S(=O)(=O)c1cccc(CC(=O)Nc2cc(-c3ccnc(F)c3)cs2)c1` [Compound 70] yielded an inhibition constant Ki at ROCK I (AA 6-553) of less than 0.1 µM.
On the same count and under the same terms, the value for `O=C(Cc1ccc(F)cc1F)Nc1nc(-c2ccnc(Cl)c2)cs1` [Compound 47] was 0.1 to 1 µM.
In the case of `Cc1cc(-c2csc(NC(=O)Cc3cccc(OCCCN4CCN(C)CC4)c3)c2)ccn1` [Compound 90], the Ki at ROCK I (AA 6-553) is 0.1 to 1 µM; at CYP1A2, more than 10 µM; on CYP2C9, more than 10 µM; on CYP3A4, more than 10 µM; in assay [1], more than 10 µM.
With `Nc1cc(-c2csc(NC(=O)Cc3cccc(O)c3)n2)ccn1` [Compound 34], the Ki at ROCK I (AA 6-553) was less than 0.1 µM.
`Nc1cc(-c2csc(NC(=O)Cc3cccc(OCCCN4CCNCC4)c3)n2)ccn1` [Compound 52] had an inhibition constant Ki at ROCK I (AA 6-553) of less than 0.1 µM.
On ROCK I (AA 6-553), `CS(=O)(=O)Nc1ccc(F)c(CC(=O)Nc2cc(-c3ccnc(Cl)c3)cs2)c1` [Compound 100] displayed an inhibitory constant (Ki) of less than 0.1 µM.
`O=C(Cc1cccc(OCCCN2CCNCC2)c1)Nc1nc(-c2ccnc(Cl)c2)cs1` [Compound 55] returned a Ki on ROCK I (AA 6-553) of less than 0.1 µM.
On the same count and under the same terms, under `CCOc1cc(-c2csc(NC(=O)Cc3cc4c(cc3Cl)OCO4)n2)ccn1` [Compound 6] stands more than 1 µM.
For `CN1CCN(CCOc2ccc(CC(=O)Nc3cc(-c4ccnc(Cl)c4)cs3)c(Cl)c2)CC1` [Compound 96], on ROCK I (AA 6-553), the Ki is less than 0.1 µM.
In turn, `Cc1cc(-c2csc(NC(=O)Cc3ccccc3)c2)ccn1` [Compound 87] showed a Ki on ROCK I (AA 6-553) of 0.1 to 1 µM.
On the same count and under the same terms, the value for `Nc1cc(-c2csc(NC(=O)Cc3cc4c(cc3Cl)OCO4)n2)ccn1` [Compound 17] was less than 0.1 µM; that for `Nc1cc(-c2csc(NC(=O)Cc3ccccc3Cl)n2)ccn1` [Compound 27] was less than 0.1 µM; that for `O=C(Cc1ccccc1F)Nc1nc(-c2ccnc(Cl)c2)cs1` [Compound 46] was 0.1 to 1 µM.
Consider `O=C(Cc1cccc(O)c1)Nc1cc(-c2ccnc(Cl)c2)cs1` [Compound 101], for which the inhibitory constant (Ki) at ROCK I (AA 6-553) was less than 0.1 µM; on CYP1A2, 1 to 10 µM; on CYP2C19, 1 to 10 µM; at CYP2C9, 1 to 10 µM; at CYP3A4, 1 to 10 µM; in assay [1], 1 to 10 µM.
As to `Cc1cc(-c2csc(NC(=O)Cc3cccc(S(=O)(=O)N(C)C)c3)c2)ccn1` [Compound 83], the Ki at ROCK I (AA 6-553) is more than 1 µM.
With `CN1CCN(CCCOc2cccc(CC(=O)Nc3nc(-c4ccnc(F)c4)cs3)c2)CC1` [Compound 60], the inhibition constant Ki at ROCK I (AA 6-553) is less than 0.1 µM.
On ROCK I (AA 6-553), `O=C(Cc1ccc(OCCCN2CCNCC2)cc1Cl)Nc1cc(-c2ccnc(Cl)c2)cs1` [Compound 97] returned a Ki of less than 0.1 µM.
Same read-out and setting: under `CN(C)S(=O)(=O)c1cccc(CC(=O)Nc2cc(-c3ccnc(F)c3)cs2)c1` [Compound 78] stands 0.1 to 1 µM.
`COc1cccc(CC(=O)Nc2cc(-c3ccnc(Cl)c3)cs2)c1` [Compound 62]: the Ki was more than 10 µM at CYP1A2 and 1 to 10 µM on CYP2C9.
In turn, `CS(=O)(=O)Nc1ccc(CC(=O)Nc2nc(-c3ccnc(N)c3)cs2)cc1` [Compound 43] showed a Ki on ROCK I (AA 6-553) of 0.1 to 1 µM.
